# Patent US8552022B2, “Substituted cyclopropyl compounds, compositions containing such compounds and methods of treatment” (Merck Sharp & Dohme Corp., priority 2009, dated 2013)
# Target: T1, GPR119 (UniProt Q8TDV5, S309L, species not given)
# T1 sequence (Q8TDV5 1-335 S309L): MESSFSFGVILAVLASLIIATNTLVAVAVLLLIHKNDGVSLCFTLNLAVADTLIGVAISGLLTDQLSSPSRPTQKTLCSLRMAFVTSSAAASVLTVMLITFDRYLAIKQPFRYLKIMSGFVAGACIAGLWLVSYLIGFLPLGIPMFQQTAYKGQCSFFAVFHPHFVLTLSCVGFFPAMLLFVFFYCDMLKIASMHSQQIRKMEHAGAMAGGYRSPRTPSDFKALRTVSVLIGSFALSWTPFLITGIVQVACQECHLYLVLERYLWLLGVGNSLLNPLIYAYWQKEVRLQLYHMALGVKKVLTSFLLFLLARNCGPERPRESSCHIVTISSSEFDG
# Assay: GPR119 signaling, cyclic AMP (cAMP) HTRF assay
# Format: cell-based, human (S309L variant) or murine
# Settings: CHO cells with Gα15 and murine GPR119 or HEK293 Flp-In cells with human GPR119 S309L, read-out: EC50 (agonist activation of GPR119, cAMP)
# Excerpt: The title compound was synthesized using 2-{2-[1-(5-chloropyrimidin-2-yl)piperidin-4-yl]cyclopropyl}ethyl 4-methylbenzenesulfonate from step 1 of this example by a general procedure analogous that described in Example 59. LRMS calc: 424.9; obs: 425.01 (M+1). Measurement of GPR119Signaling Using a Cyclic AMP (cAMP) Homogenous Time Resolved Fluorescence (HTRF) Assay
# Chinese hamster ovary (CHO) cell lines stably transfected with the permissive guanine nucleotide binding protein alpha 15 (Gα15) and murine GPR119 were maintained in DMEM media containing FBS, penicillin-streptomycin, puromycin, and G418 (geneticin). Alternatively, human embryonic kidney (HEK)293 Flp-In cells (Invitrogen, Carlsbad, Calif.) were stably transfected with a human SNP variant (S309L) of GPR119 and maintained in DMEM media containing FBS, penicillin-streptomycin, and hygromycin. Agonist activation of the GPR119 receptor was measured in receptor transfected cells described above, treated with compounds of this invention, using a commercial homogenous time resolved fluorescence (HTRF) kit for measurement of cAMP (CisBio, Bedford, Mass.). The assay was performed in 96-well half-volume plates (murine) or 384-well plates (human) following the manufacturers instructions. Briefly, suspended cells were incubated with a dose titration of test compound at room temperature for 60 min, lysed, and incubated with HTRF reagents for an additional 60 min. The plate was read using an Envision multilabel reader (Perkin Elmer) adjusted to read time resolved fluorescence and the cAMP concentrations were extrapolated from a cAMP calibration curve. […] The concentration of test compound required to stimulate a half-maximal response (EC50), and efficacy as compared to an internal agonist control, was determined from a sigmoidal 4-parameter curve fit of the resulting plot of normalized activity versus compound concentration.
row,Compound,EC50 [nM]
1,"Clc1cnc(N2CCC([C@H]3C[C@H]3CCNc3cnc(-n4cncn4)nc3)CC2)nc1 [Ex 16, N-(2-{(1S,2S)-2-[1-(5-chloropyrimidin-2-yl)piperidin-4-yl]cyclopropyl}ethyl)-2-(1H-1,2,4-triazol-1-yl)pyrimidin-5-amine]",10 to 50
2,"Cc1nc(C#N)cc(NCC[C@@H]2C[C@@H]2C2CCN(c3ncc(Cl)cn3)CC2)n1 (racemic) [Ex 4, rac-cis-6-[(2-{2-[1-(5-chloropyrimidin-2-yl)piperidin-4-yl]cyclopropyl}ethyl)amino]-2-methylpyrimidine-4-carbonitrile]",< 10
3,"CC(C)(C)C(=O)Nc1ccc(NCC[C@@H]2C[C@@H]2C2CCN(c3ncc(Cl)cn3)CC2)cn1 [Ex 56, N-{5-[(2-{(1S,2S)-2-[1-(5-chloropyrimidin-2-yl)piperidin-4-yl]cyclopropyl}ethyl)amino]pyridin-2-yl}-2,2-dimethyl propanamide]",< 10
4,"CC(=O)Nc1cnc(NCC[C@@H]2C[C@@H]2C2CCN(c3ncc(Cl)cn3)CC2)cc1C [Ex 34, N-{6-[(2-{(1S,2S)-2-[1-(5-chloropyrimidin-2-yl)piperidin-4-yl]cyclopropyl}ethyl)amino]-4-methylpyridin-3-yl}acetamide]",10 to 50
